The target in experiment [1] is PI3Kalpha (Homo sapiens (Human), UniProt P42336). As to the kind of experiment: HTRF PI3K biochemical assay, alpha isoform (selectivity versus delta). The conditions noted are these: relative ratio PI3K-alpha IC50 value / PI3K-delta IC50 value. The gist of the method: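 Recombinant human PI3Kα (0.5 nM) preincubated 15 min with compound, then reacted 1 h at room temperature with 100 uM ATP and 5 uM PIP2. PIP3 formation detected by HTRF competition with biotin-PIP3 for GST-GRP1 PH domain (Eu/APC, 665/620 nm); product lowers signal.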
Chain of PI3Kalpha (P42336 whole entry, the tested form may be a part, canonical isoform): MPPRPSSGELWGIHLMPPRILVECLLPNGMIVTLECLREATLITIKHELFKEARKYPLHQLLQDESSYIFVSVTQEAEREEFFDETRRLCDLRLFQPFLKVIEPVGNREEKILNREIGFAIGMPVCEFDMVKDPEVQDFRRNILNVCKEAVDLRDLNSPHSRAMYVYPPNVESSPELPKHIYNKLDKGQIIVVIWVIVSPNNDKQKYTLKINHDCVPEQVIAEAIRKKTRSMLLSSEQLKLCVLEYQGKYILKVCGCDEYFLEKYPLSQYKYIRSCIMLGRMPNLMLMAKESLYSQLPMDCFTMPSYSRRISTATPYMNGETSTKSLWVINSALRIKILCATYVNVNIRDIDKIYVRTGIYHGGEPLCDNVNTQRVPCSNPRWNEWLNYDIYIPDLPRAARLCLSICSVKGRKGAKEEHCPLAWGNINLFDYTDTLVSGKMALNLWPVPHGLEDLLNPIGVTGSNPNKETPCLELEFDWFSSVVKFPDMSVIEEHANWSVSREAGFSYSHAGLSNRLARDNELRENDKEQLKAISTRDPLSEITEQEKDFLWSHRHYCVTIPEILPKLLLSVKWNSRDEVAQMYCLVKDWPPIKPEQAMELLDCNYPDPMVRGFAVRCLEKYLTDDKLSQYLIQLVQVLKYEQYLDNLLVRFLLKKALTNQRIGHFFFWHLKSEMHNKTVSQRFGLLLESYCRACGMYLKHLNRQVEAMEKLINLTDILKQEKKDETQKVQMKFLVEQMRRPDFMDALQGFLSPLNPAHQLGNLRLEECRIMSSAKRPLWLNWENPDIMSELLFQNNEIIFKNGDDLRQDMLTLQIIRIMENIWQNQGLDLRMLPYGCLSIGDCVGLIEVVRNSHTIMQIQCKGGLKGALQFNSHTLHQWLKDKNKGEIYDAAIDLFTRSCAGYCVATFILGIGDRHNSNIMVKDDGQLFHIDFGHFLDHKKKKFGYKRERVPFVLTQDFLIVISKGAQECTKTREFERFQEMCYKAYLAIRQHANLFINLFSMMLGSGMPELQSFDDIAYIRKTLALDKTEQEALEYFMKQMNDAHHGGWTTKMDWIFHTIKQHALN
Chain of PI3Kalpha (P27986 whole entry partner, the tested form may be a part, canonical isoform): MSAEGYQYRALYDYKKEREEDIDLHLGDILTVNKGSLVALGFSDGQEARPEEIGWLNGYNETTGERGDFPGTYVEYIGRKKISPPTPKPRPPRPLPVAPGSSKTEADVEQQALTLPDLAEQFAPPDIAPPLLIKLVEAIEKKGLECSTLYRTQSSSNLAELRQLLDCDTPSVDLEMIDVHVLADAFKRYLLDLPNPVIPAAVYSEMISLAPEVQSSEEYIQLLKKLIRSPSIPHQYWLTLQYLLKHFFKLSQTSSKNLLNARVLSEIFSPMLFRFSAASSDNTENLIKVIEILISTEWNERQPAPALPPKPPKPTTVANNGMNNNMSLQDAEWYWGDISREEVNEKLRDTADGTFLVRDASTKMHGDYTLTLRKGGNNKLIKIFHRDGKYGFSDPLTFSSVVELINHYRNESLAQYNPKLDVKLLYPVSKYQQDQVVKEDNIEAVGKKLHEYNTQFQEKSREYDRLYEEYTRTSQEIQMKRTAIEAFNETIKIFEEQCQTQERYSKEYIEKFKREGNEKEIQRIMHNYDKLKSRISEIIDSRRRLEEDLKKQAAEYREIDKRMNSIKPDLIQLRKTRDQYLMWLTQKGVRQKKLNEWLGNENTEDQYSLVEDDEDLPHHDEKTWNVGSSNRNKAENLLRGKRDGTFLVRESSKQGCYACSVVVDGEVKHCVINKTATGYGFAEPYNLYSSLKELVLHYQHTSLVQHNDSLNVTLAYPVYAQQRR

For experiment [2], the target named is PI3Kdelta (Homo sapiens (Human), UniProt O00329). Put plainly: HTRF PI3K biochemical assay, delta isoform. The following applies: 0.3 nM enzyme, 100 uM ATP, 5 uM PIP2, form screened per table. The gist of the method: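 PI3Kδ at 0.3 nM preincubated 15 min with compound, then reacted 1 h at room temperature with 100 uM ATP and 5 uM PIP2. PIP3 product detected by competitive HTRF displacing biotin-PIP3 from GST-GRP1 PH domain, so signal falls with activity. 10-point 3-fold dose response.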
Chain of PI3Kdelta (O00329 whole entry, the tested form may be a part, canonical isoform): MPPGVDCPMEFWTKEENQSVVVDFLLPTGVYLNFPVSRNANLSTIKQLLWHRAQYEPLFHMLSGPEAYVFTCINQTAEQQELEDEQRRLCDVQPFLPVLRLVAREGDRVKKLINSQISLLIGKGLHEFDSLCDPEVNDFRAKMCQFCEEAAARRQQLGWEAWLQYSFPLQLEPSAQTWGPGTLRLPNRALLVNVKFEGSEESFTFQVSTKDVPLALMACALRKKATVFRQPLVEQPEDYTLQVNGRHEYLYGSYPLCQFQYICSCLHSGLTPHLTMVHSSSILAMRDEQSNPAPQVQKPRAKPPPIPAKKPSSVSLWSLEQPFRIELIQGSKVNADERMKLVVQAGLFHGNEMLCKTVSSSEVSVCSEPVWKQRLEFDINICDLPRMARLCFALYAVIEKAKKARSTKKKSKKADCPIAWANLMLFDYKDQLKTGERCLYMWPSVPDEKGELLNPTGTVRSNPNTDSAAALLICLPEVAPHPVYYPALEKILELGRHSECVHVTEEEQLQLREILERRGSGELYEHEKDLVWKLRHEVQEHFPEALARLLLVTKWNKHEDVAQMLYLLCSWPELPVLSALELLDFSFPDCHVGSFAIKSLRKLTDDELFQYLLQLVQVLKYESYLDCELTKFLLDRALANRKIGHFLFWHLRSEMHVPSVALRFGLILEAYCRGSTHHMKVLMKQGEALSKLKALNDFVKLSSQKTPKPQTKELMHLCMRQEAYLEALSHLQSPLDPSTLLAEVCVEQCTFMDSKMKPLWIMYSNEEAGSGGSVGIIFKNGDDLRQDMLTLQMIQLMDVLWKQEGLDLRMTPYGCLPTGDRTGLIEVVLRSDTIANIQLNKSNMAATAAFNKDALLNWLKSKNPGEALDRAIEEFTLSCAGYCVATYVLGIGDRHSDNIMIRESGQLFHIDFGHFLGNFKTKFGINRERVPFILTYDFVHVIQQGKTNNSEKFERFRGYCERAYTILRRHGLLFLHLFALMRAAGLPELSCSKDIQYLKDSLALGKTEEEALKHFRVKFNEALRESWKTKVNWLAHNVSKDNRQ
Chain of PI3Kdelta (P27986 whole entry partner, the tested form may be a part, canonical isoform): as the sequence (P27986 whole entry partner, the tested form may be a part, canonical isoform) above
Background: TR-FRET usually uses a lanthanide donor and a delayed reading to cut background.

On to `C[C@@H]1CN(c2nc(-c3cnn(C)c3)nc(Cl)c2C#N)CCN1C(=O)C1CC1` [Compound 6-5, 4-chloro-6-[(3R)-4-(cyclopropylcarbonyl)-3-methylpiperazin-1-yl]-2-(1-methyl-1H-pyrazol-4-yl)pyrimidine-5-carbonitrile], for which, in experiment [1], the “Selectivity versus PI3Kalpha” value is reported as over 10. This compound also yielded an IC50 in experiment [2] of 140 nM.
Take `CCc1nc(-c2cnn(C)c2)nc(N2CCN(C(=O)C3CC3)[C@H](C)C2)c1C#N` [Compound 6-6, 4-[(3R)-4-(cyclopropylcarbonyl)-3-methylpiperazin-1-yl]-6-ethyl-2-(1-methyl-1H-pyrazol-4-yl)pyrimidine-5-carbonitrile]: the “Selectivity versus PI3Kalpha” value in experiment [1] was over 10. Also, in experiment [2], the midpoint of inhibition, the IC50, lay at 220 nM.
In the case of `C[C@@H]1CN(c2nc(-c3cnn(C)c3)nc(NC3CCC3)c2C#N)CCN1C(=O)C1CC1` [Compound 6-7, 4-(cyclobutylamino)-6-[(3R)-4-(cyclopropylcarbonyl)-3-methylpiperazin-1-yl]-2-(1-methyl-1H-pyrazol-4-yl)pyrimidine-5-carbonitrile], the “Selectivity versus PI3Kalpha” value in experiment [1] is given as over 10. In experiment [2], this compound showed an IC50 of 80 nM.
In the case of `C[C@@H]1CN(c2nc(-c3cnn(C)c3)nc(Nc3ccccc3)c2C#N)CCN1C(=O)C1CC1` [Compound 6-8, 4-[(3R)-4-(cyclopropylcarbonyl)-3-methylpiperazin-1-yl]-2-(1-methyl-1H-pyrazol-4-yl)-6-(phenylamino)pyrimidine-5-carbonitrile], in experiment [1], the “Selectivity versus PI3Kalpha” value is reported as over 10. Half-maximal inhibition in experiment [2] (IC50) was put at 19 nM.
Consider `C[C@@H]1CN(c2nc(Cl)c(C#N)c(-c3cnn(C)c3)n2)CCN1C(=O)C1CC1` [Compound 6-9, 4-chloro-2-[(3R)-4-(cyclopropylcarbonyl)-3-methylpiperazin-1-yl]-6-(1-methyl-1H-pyrazol-4-yl)pyrimidine-5-carbonitrile], for which the “Selectivity versus PI3Kalpha” value in experiment [1] was over 10. The same compound yielded an IC50 in experiment [2] of 30 nM.
As for `Cc1nc(-c2cnn(C)c2)nc(N2CCN(C(=O)C3CC3)[C@H](C)C2)c1C#N` [Compound 6-10, 4-[(3R)-4-(cyclopropylcarbonyl)-3-methylpiperazin-1-yl]-6-methyl-2-(1-methyl-1H-pyrazol-4-yl)pyrimidine-5-carbonitrile], in experiment [1], the “Selectivity versus PI3Kalpha” value is listed as over 10. In experiment [2], half-maximal inhibition (IC50) required 180 nM.
`C[C@@H]1CN(c2nc(-c3cnn(C)c3CCC(F)(F)F)ncc2C#N)CCN1C(=O)C1CC1` [Compound 6-11, 4-[(3R)-4-(cyclopropylcarbonyl)-3-methylpiperazin-1-yl]-2-[1-methyl-5-(3,3,3-trifluoropropyl)-1H-pyrazol-4-yl]pyrimidine-5-carbonitrile]: in experiment [1], the “Selectivity versus PI3Kalpha” value is listed as over 10. The IC50 in experiment [2] is 160 nM.
`COCCc1nc(N2CCN(C(=O)C3CC3)[C@H](C)C2)nc(-c2cnn(C)c2)c1C#N` [Compound 6-12, 2-[(3R)-4-(cyclopropylcarbonyl)-3-methylpiperazin-1-yl]-4-(2-methoxyethyl)-6-(1-methyl-1H-pyrazol-4-yl)pyrimidine-5-carbonitrile]: in experiment [1], the “Selectivity versus PI3Kalpha” value is given as over 10. In experiment [2], this compound returned a half-inhibitory concentration (IC50) of 58 nM.
Regarding `C[C@@H]1CN(c2ncc(C#N)c(-c3cn(C)nc3C#N)n2)CCN1C(=O)C1CC1` [Compound 6-13, 4-(3-cyano-1-methyl-1H-pyrazol-4-yl)-2-[(3R)-4-(cyclopropylcarbonyl)-3-methylpiperazin-1-yl]pyrimidine-5-carbonitrile], the “Selectivity versus PI3Kalpha” value in experiment [1] is recorded as over 10. The midpoint of inhibition in experiment [2], the IC50, lay at 180 nM.
As to `C[C@@H]1CN(c2ncc(C#N)c(-c3cn(C)nc3N)n2)CCN1C(=O)C1CC1` [Compound 6-14, 4-(3-amino-1-methyl-1H-pyrazol-4-yl)-2-[(3R)-4-(cyclopropylcarbonyl)-3-methylpiperazin-1-yl]pyrimidine-5-carbonitrile], in experiment [1], the “Selectivity versus PI3Kalpha” value is listed as over 10. Moreover, the concentration for half-maximal inhibition (IC50) in experiment [2] was 21 nM.
Turning to `C[C@@H]1CN(c2nc(-c3cnn4c3CCC4)ncc2C#N)CCN1C(=O)C1CC1` [Compound 6-15, 4-[(3R)-4-(cyclopropylcarbonyl)-3-methylpiperazin-1-yl]-2-(5,6-dihydro-4H-pyrrolo[1,2-b]pyrazol-3-yl)pyrimidine-5-carbonitrile], the “Selectivity versus PI3Kalpha” value in experiment [1] is recorded as over 10. For the same compound, inhibition in experiment [2] was half-maximal at 83 nM (IC50).
With `C[C@@H]1CN(c2nc(-c3cnn(C)c3)nc(NC(=O)NCC(F)(F)F)c2C#N)CCN1C(=O)C1CC1` [Compound 6-16, 1-{5-cyano-6-[(3R)-4-(cyclopropylcarbonyl)-3-methylpiperazin-1-yl]-2-(1-methyl-1H-pyrazol-4-yl)pyrimidin-4-yl}-3-(2,2,2-trifluoroethyl)urea], in experiment [1], the “Selectivity versus PI3Kalpha” value is listed as over 10. The compound further came in with an IC50 in experiment [2] of 16 nM.
For the compound `C[C@@H]1CN(c2nc(-c3cnn(C)c3)nc(NC(=O)NC3CCC3)c2C#N)CCN1C(=O)C1CC1` [Compound 6-17, 1-{5-cyano-6-[(3R)-4-(cyclopropylcarbonyl)-3-methylpiperazin-1-yl]-2-(1-methyl-1H-pyrazol-4-yl)pyrimidin-4-yl}-3-cyclobutylurea], the “Selectivity versus PI3Kalpha” value in experiment [1] is recorded as over 10. 5 nM corresponded to half-maximal inhibition in experiment [2] (IC50).
On to `C[C@@H]1CN(c2nc(-c3cnn(C)c3)nc(NCC3COC3)c2C#N)CCN1C(=O)C1CC1` [Compound 6-18, 4-[(3R)-4-(cyclopropylcarbonyl)-3-methylpiperazin-1-yl]-2-(1-methyl-1H-pyrazol-4-yl)-6-[(oxetan-3-ylmethyl)amino]pyrimidine-5-carbonitrile], for which the “Selectivity versus PI3Kalpha” value in experiment [1] is on record as over 10. For the same compound, in experiment [2], half-maximal inhibition (IC50) was put at 49 nM.
For `C[C@@H]1CN(c2nc(-c3cnn(C)c3)nc(NCCC(F)(F)F)c2C#N)CCN1C(=O)C1CC1` [Compound 6-19, 4-[(3R)-4-(cyclopropylcarbonyl)-3-methylpiperazin-1-yl]-2-(1-methyl-1H-pyrazol-4-yl)-6-[(3,3,3-trifluoropropyl)amino]pyrimidine-5-carbonitrile], in experiment [1], the “Selectivity versus PI3Kalpha” value is over 10. The compound further had an IC50 in experiment [2] of 9.4 nM.
Consider `CC(C)Nc1nc(-c2cnn(C)c2)nc(N2CCN(C(=O)C3CC3)[C@H](C)C2)c1C#N` [Compound 6-20, 4-[(3R)-4-(cyclopropylcarbonyl)-3-methylpiperazin-1-yl]-6-[(1-methylethyl)amino]-2-(1-methyl-1H-pyrazol-4-yl)pyrimidine-5-carbonitrile], for which the “Selectivity versus PI3Kalpha” value in experiment [1] is reported as over 10. For the same compound, it took 150 nM to reach half-maximal inhibition in experiment [2] (IC50).
On the same counts, the results for `CC(C)CNc1nc(-c2cnn(C)c2)nc(N2CCN(C(=O)C3CC3)[C@H](C)C2)c1C#N` [Compound 6-21, 4-[(3R)-4-(cyclopropylcarbonyl)-3-methylpiperazin-1-yl]-6-[(2-methylpropyl)amino]-2-(1-methyl-1H-pyrazol-4-yl)pyrimidine-5-carbonitrile] are over 10 and 21 nM.
`C[C@@H]1CN(c2nc(-c3cnn(C)c3)nc(OCC(F)(F)F)c2C#N)CCN1C(=O)C1CC1` [Compound 6-22, 4-[(3R)-4-(cyclopropylcarbonyl)-3-methylpiperazin-1-yl]-2-(1-methyl-1H-pyrazol-4-yl)-6-(2,2,2-trifluoroethoxy)pyrimidine-5-carbonitrile]: the “Selectivity versus PI3Kalpha” value in experiment [1] was over 10. The same compound displayed an IC50 in experiment [2] of 9.7 nM.
`C[C@@H]1CN(c2nc(-c3cnn(C)c3)nc(N3CC(C(F)(F)F)C3)c2C#N)CCN1C(=O)C1CC1` [Compound 6-23, 4-[(3R)-4-(cyclopropylcarbonyl)-3-methylpiperazin-1-yl]-2-(1-methyl-1H-pyrazol-4-yl)-6-[3-(trifluoromethyl)azetidin-1-yl]pyrimidine-5-carbonitrile]: the “Selectivity versus PI3Kalpha” value in experiment [1] is given as over 10. In addition, the IC50 in experiment [2] worked out at 83 nM.
`CCCc1nc(-c2cnn(C)c2)nc(N2CCN(C(=O)C3CC3)[C@H](C)C2)c1C#N` [Compound 6-24, 4-[(3R)-4-(cyclopropylcarbonyl)-3-methylpiperazin-1-yl]-2-(1-methyl-1H-pyrazol-4-yl)-6-propylpyrimidine-5-carbonitrile]: the “Selectivity versus PI3Kalpha” value in experiment [1] is listed as over 10. The compound also displayed an IC50 in experiment [2] of 200 nM.
Regarding `CCCc1nc(N2CCN(C(=O)C3CC3)[C@H](C)C2)nc(-c2cnn(C)c2)c1C#N` [Compound 6-25, 2-[(3R)-4-(cyclopropylcarbonyl)-3-methylpiperazin-1-yl]-4-(1-methyl-1H-pyrazol-4-yl)-6-propylpyrimidine-5-carbonitrile], in experiment [1], the “Selectivity versus PI3Kalpha” value was over 10. This compound yielded an IC50 in experiment [2] of 10 nM.
As for `C[C@@H]1CN(c2nc(CCC(F)(F)F)c(C#N)c(-c3cnn(C)c3)n2)CCN1C(=O)C1CC1` [Compound 6-26, 2-[(3R)-4-(cyclopropylcarbonyl)-3-methylpiperazin-1-yl]-4-(1-methyl-1H-pyrazol-4-yl)-6-(3,3,3-trifluoropropyl)pyrimidine-5-carbonitrile], the “Selectivity versus PI3Kalpha” value in experiment [1] is on record as over 10. The compound also registered an IC50 in experiment [2] of 12 nM.
As to `C[C@@H]1CN(c2nc(-c3cnn(C)c3)c(C#N)c(C3CC3)n2)CCN1C(=O)C1CC1` [Compound 6-27, 4-cyclopropyl-2-[(3R)-4-(cyclopropylcarbonyl)-3-methylpiperazin-1-yl]-6-(1-methyl-1H-pyrazol-4-yl)pyrimidine-5-carbonitrile], in experiment [1], the “Selectivity versus PI3Kalpha” value is reported as over 10. Besides, the half-inhibitory concentration (IC50) in experiment [2] was determined as 32 nM.
With `Cc1nn(C)cc1-c1ncc(C#N)c(N2CCN(C(=O)C3CC3)[C@H](C)C2)n1` [Compound 6-28, 4-[(3R)-4-(cyclopropylcarbonyl)-3-methylpiperazin-1-yl]-2-(1,3-dimethyl-1H-pyrazol-4-yl)pyrimidine-5-carbonitrile], in experiment [1], the “Selectivity versus PI3Kalpha” value was over 10. Besides, half-maximal inhibition in experiment [2] (IC50) was put at 140 nM.

For orientation: IC50 means the midpoint of a concentration-inhibition curve.

(Values after patent US11230547B2, “Purine inhibitors of human phosphatidylinositol 3-kinase delta” (Merck Sharp & Dohme Corp., priority 2017, dated 2022).)
